Results as given in paper PMC11212140, “Molecular Bidents with Two Electrophilic Warheads as a New Pharmacological Modality” (ACS Central Science, 2024).

Tests used:
Assay in all cases: KiNativ profiling in H3255 cells
Type in all cases: cell-based, human
[1] = test system: T1, NEK1; conditions: 2.5 µM; Lys2; DIKSQNIFLTK
T1 construct: purchased ActivX Biosciences (KiNativ)
Protocol: (§1) H3255 cells were plated with 6.5x10^6 per condition in fresh media in 15 cm plates and treated the 80% confluency for 2 hours with DMSO or 2.5 μM of ZNL-0056. To harvest cells, plates were washed 3 times with cold PBS, then collected by scraping into 4 mL of cold PBS containing protease and phosphatase inhibitors. Cells were pelleted by centrifugation at 1350 g at 4 ℃ for 5 minutes and immediately frozen in liquid nitrogen. The frozen samples were sent to ActivX Biosciences (La Jolla, CA) for the remainder of the KiNativ profiling experiment4. […]

[2] = test system: T2, SIK; conditions: 2.5 µM; Lys1; TQVAIKIIDK
T2 construct: purchased ActivX Biosciences (KiNativ)
Protocol: as §1

[3] = test system: T3, AurA; conditions: 2.5 µM
T3 construct: purchased ActivX Biosciences (KiNativ)
Protocol: as §1

[4] = test system: T4, SGK; conditions: 2.5 µM
T4 construct: purchased ActivX Biosciences (KiNativ)
Protocol: as §1

[5] = test system: T5, Erk2; conditions: 2.5 µM; Lys2; DLKPSNLLLNTTCDLK
T5 construct: purchased ActivX Biosciences (KiNativ)
Protocol: as §1

[6] = test system: T6, p70S6Kb; conditions: 2.5 µM; Lys2; DLKPENIMLSSQGHIK
T6 construct: purchased ActivX Biosciences (KiNativ)
Protocol: as §1

[7] = test system: T7, LATS1; conditions: 2.5 µM
T7 construct: purchased ActivX Biosciences (KiNativ)
Protocol: as §1

[8] = test system: T8, GSK3B; conditions: 2.5 µM; Lys2; DIKPQNLLLDPDTAVLK
T8 construct: purchased ActivX Biosciences (KiNativ)
Protocol: as §1

[9] = test system: T9, PIK3C3; conditions: 2.5 µM; ATP; TEDGGKYPVIFKHGDDLRQDQLILQIISLMDK
T9 construct: purchased ActivX Biosciences (KiNativ)
Protocol: as §1

[10] = test system: T10, CK1a; conditions: 2.5 µM; Lys2; DIKPDNFLMGIGR
T10 construct: purchased ActivX Biosciences (KiNativ)
Protocol: as §1

[11] = test system: T11, RSK2 domain1; conditions: 2.5 µM
T11 construct: RSK2 domain1; purchased ActivX Biosciences (KiNativ)
Protocol: as §1

[12] = test system: T12, p38a; conditions: 2.5 µM
T12 construct: purchased ActivX Biosciences (KiNativ)
Protocol: as §1

[13] = test system: T13, SBK; conditions: 2.5 µM; Lys2; DIKPENVLLFDR
T13 construct: purchased ActivX Biosciences (KiNativ)
Protocol: as §1

[14] = test system: T14, PI4KB; conditions: 2.5 µM, ATP
T14 construct: purchased ActivX Biosciences (KiNativ)
Protocol: as §1

[15] = test system: T15, ROCK1; conditions: 2.5 µM; Other; KLQLELNQER
T15 construct: purchased ActivX Biosciences (KiNativ)
Protocol: as §1

[16] = test system: T16, CDK4; conditions: 2.5 µM; Lys2; DLKPENILVTSGGTVK
T16 construct: purchased ActivX Biosciences (KiNativ)
Protocol: as §1

[17] = test system: T17, ULK1; conditions: 2.5 µM; Lys2; DLKPQNILLSNPAGR
T17 construct: purchased ActivX Biosciences (KiNativ)
Protocol: as §1

[18] = test system: T18, FAM20B; conditions: 2.5 µM; ATP; ETEPACADGDIMEGSVTLWLPDVWPLQKHR
T18 construct: purchased ActivX Biosciences (KiNativ)
Protocol: as §1

[19] = test system: T19, CDC2; conditions: 2.5 µM
T19 construct: purchased ActivX Biosciences (KiNativ)
Protocol: as §1

[20] = test system: PCTAIRE1, PCTAIRE3; conditions: 2.5 µM; Lys2; DLKPQNLLINER
Protocol: as §1

[21] = test system: T20, MAP4K5; conditions: 2.5 µM
T20 construct: purchased ActivX Biosciences (KiNativ)
Protocol: as §1

[22] = test system: p38d, p38g; conditions: 2.5 µM; Lys2; DLKPGNLAVNEDCELK
Protocol: as §1

[23] = test system: MAP3K2, MAP3K3; conditions: 2.5 µM; Lys2; DIKGANILR
Protocol: as §1

[24] = test system: T21, CLK2; conditions: 2.5 µM; Lys2; LTHTDLKPENILFVNSDYELTYNLEK
T21 construct: purchased ActivX Biosciences (KiNativ)
Protocol: as §1

[25] = test system: T22, CDK9; conditions: 2.5 µM
T22 construct: purchased ActivX Biosciences (KiNativ)
Protocol: as §1

[26] = test system: T23, MAP2K6; conditions: 2.5 µM
T23 construct: purchased ActivX Biosciences (KiNativ)
Protocol: as §1

[27] = test system: T24, IRAK1; conditions: 2.5 µM; Lys2; AIQFLHQDSPSLIHGDIKSSNVLLDER
T24 construct: purchased ActivX Biosciences (KiNativ)
Protocol: as §1

[28] = test system: T25, CK2a1; conditions: 2.5 µM; Protein Kinase Domain; GGPNIITLADIVKDPVSR
T25 construct: purchased ActivX Biosciences (KiNativ)
Protocol: as §1

[29] = test system: T26, CASK; conditions: 2.5 µM; Lys1; ETGQQFAVKIVDVAK
T26 construct: purchased ActivX Biosciences (KiNativ)
Protocol: as §1

[30] = test system: T27, LYN; conditions: 2.5 µM
T27 construct: purchased ActivX Biosciences (KiNativ)
Protocol: as §1

[31] = test system: PCTAIRE2, PCTAIRE3; conditions: 2.5 µM; Lys1; SKLTENLVALKEIR
Protocol: as §1

[32] = test system: T28, PFTAIRE1; conditions: 2.5 µM; Lys1; LVALKVIR
T28 construct: purchased ActivX Biosciences (KiNativ)
Protocol: as §1

[33] = Activation Loop, LTDFGLSKESIDHEKK
[34] = Protein Kinase Domain, KPLFHGDSEIDQLFR
[35] = Activation Loop, EGAKFPIKWTAPEAINFGCFTIK

C=CC(=O)Nc1cc(C(=O)Nc2nc3cccc(C)c3n2[C@@H]2CCCCN(C(=O)C=C)C2)cs1 [ZNL-0056]
Inhibition [1]: -5.2%
Inhibition [2]: 28.2%
Inhibition ([3]; Lys1, FILALKVLFK): -0.0337%
Inhibition ([3]; Lys2, DIKPENLLLGSAGELK): -15.7%
Inhibition ([4]; Lys1, HKAEEVFYAVKVLQK): 12.6%
Inhibition ([4]; Lys2, DLKPENILLDSQGHIVLTDFGLCK): 1.7%
Inhibition [5]: -24.2%
Inhibition [6]: -8.5%
Inhibition ([7]; Lys1, ALYATKTLR): 3.8%
Inhibition ([7]; Lys2, DIKPDNILIDR): 20.9%
Inhibition [8]: -4.3%
Inhibition [9]: 6.7%
Inhibition [10]: 10.2%
Inhibition [11, 33]: -17.5%
Inhibition ([11]; Lys1, QLYAMKVLK): 0.2%
Inhibition ([12]; Lys2, DLKPSNLAVNEDCELK): -10.4%
Inhibition ([12]; Other, QELNKTIWEVPER): -5.0%
Inhibition [13]: 9.6%
Inhibition ([14]; LLSVIVKCGDDLRQELLAFQVLK): -9.0%
Inhibition ([14]; VPHTQAVVLNSKDK): -25.9%
Inhibition [15]: -20.4%
Inhibition [16]: -13.0%
Inhibition [17]: 3.5%
Inhibition [18]: -17.9%
Inhibition ([19]; Lys1, TTGQVVAMKK): -18.6%
Inhibition ([19]; Lys2, DLKPQNLLIDDK): -1.3%
Inhibition [19, 34]: 2.3%
Inhibition [20]: -3.3%
Inhibition ([21]; Lys1, NVHTGELAAVKIIK): -3.7%
Inhibition ([21]; Lys2, DIKGANILLTDHGDVK): 15.2%
Inhibition [22]: -20.6%
Inhibition [23]: -6.0%
Inhibition [24]: 9.5%
Inhibition ([25]; ATP Loop, IGQGTFGEVFKAR): -9.9%
Inhibition ([25]; Lys2, DMKAANVLITR): 16.6%
Inhibition ([26]; Lys1, HVPSGQIMAVKR): -13.1%
Inhibition ([26]; Lys2, DVKPSNVLINALGQVK): -0.186%
Inhibition [27]: 21.6%
Inhibition [28]: 6.3%
Inhibition [29]: -14.3%
Inhibition [30, 35]: -13.3%
Inhibition ([30]; Lys1, VAVKTLKPGTMSVQAFLEEANLMK): -8.7%
Inhibition [31]: -16.7%
Inhibition [32]: 20.8%

C=CC(=O)Nc1cc(Nc2nccc(-c3cn(C)c4ccccc34)n2)c(OC)cc1N(C)CCN(C)C [Osimertinib, osimertinib, reference compound]
Inhibition [1]: -34.8%
Inhibition [2]: 48.0%
Inhibition ([3]; Lys1, FILALKVLFK): -3.3%
Inhibition ([3]; Lys2, DIKPENLLLGSAGELK): 2.6%
Inhibition ([4]; Lys1, HKAEEVFYAVKVLQK): 13.2%
Inhibition ([4]; Lys2, DLKPENILLDSQGHIVLTDFGLCK): -15.1%
Inhibition [5]: 1.9%
Inhibition [6]: -28.8%
Inhibition ([7]; Lys1, ALYATKTLR): -8.1%
Inhibition ([7]; Lys2, DIKPDNILIDR): 5.0%
Inhibition [8]: -0.3%
Inhibition [9]: -7.5%
Inhibition [10]: 12.6%
Inhibition [11, 33]: -31.9%
Inhibition ([11]; Lys1, QLYAMKVLK): 3.3%
Inhibition ([12]; Lys2, DLKPSNLAVNEDCELK): 19.9%
Inhibition ([12]; Other, QELNKTIWEVPER): 12.6%
Inhibition [13]: -14.3%
Inhibition ([14]; LLSVIVKCGDDLRQELLAFQVLK): -20.5%
Inhibition ([14]; VPHTQAVVLNSKDK): 21.1%
Inhibition [15]: -7.6%
Inhibition [16]: -1.3%
Inhibition [17]: -9.0%
Inhibition [18]: 20.1%
Inhibition ([19]; Lys1, TTGQVVAMKK): -1.3%
Inhibition ([19]; Lys2, DLKPQNLLIDDK): 29.6%
Inhibition [19, 34]: -18.5%
Inhibition [20]: 8.7%
Inhibition ([21]; Lys1, NVHTGELAAVKIIK): -13.4%
Inhibition ([21]; Lys2, DIKGANILLTDHGDVK): -6.7%
Inhibition [22]: 11.1%
Inhibition [23]: -6.6%
Inhibition [24]: 26.6%
Inhibition ([25]; ATP Loop, IGQGTFGEVFKAR): 12.0%
Inhibition ([25]; Lys2, DMKAANVLITR): 22.6%
Inhibition ([26]; Lys1, HVPSGQIMAVKR): 6.1%
Inhibition ([26]; Lys2, DVKPSNVLINALGQVK): -10.0%
Inhibition [27]: -50.3%
Inhibition [28]: -0.558%
Inhibition [29]: 6.8%
Inhibition [30, 35]: 7.2%
Inhibition ([30]; Lys1, VAVKTLKPGTMSVQAFLEEANLMK): -3.5%
Inhibition [31]: -33.1%
Inhibition [32]: 2.2%
